According to patent EP3995502A1, “4-HYDROXYPHENYL PHOSPHONIUM SALTS WITH ANTI-PARASITIC PROPERTIES” (priority 2019, dated 2021):
Where two headings read alike, the source gives them in different places.

Assays:
[1] = tested on: L. infantum intracellular amastigotes; experiment: Leishmanicidal activity on intracellular amastigotes of clinical isolates of L. infantum; assay type: cell-based
From the text: (§1) The data represent the mean ± standard deviation of 3 independent experiments. ^b SI = selectivity index (EC50 THP-1 / EC50 parasite (amastigote form)). ^c not assayed. ^d Sensitivity data obtained in L. infantum LEM3049. ^eAmphotericin B. ^fMiltefosine.
(§2) ^aClinical isolates of L. infantum used: LEM 3049 as a reference line; LEM 3323, resistant to Sb^III; LEM 5159, resistant to miltefosine (MIL) and LEM 2126, resistant to MIL and paromomycin. Amphotericin B (AmB) was used as a reference drug. The data represent the mean ± standard deviation of 3 independent experiments.

[2] = tested on: L. donovani promastigotes; experiment: In vitro leishmanicidal activity, MTT colorimetric method, promastigotes; settings: read-out: EC50 (µM) L. donovani promastigotes
[3] = tested on: L. donovani intracellular amastigotes; experiment: In vitro leishmanicidal activity, MTT colorimetric method, intracellular amastigotes; settings: read-out: EC50 (µM) L. donovani intracellular amastigotes
[4] = tested on: L. infantum promastigotes; experiment: Leishmanicidal activity on promastigotes of clinical isolates of L. infantum; assay type: cell-based
From the text: as §1, §2

THP-1 cells [5] = tested on: THP-1 cells
T. brucei B48 = experiment: microbe, parasite or virus in culture; assay type: cell-based, T. b. brucei; parameters: RF: unit not given here; settings: for EC50: Trypanosoma brucei, read-out: EC50 (µM) T. brucei B48
[6] = tested on: T. brucei (strain s427 of T. b. brucei); experiment: In vitro trypanocidal activity, sensitive strain s427; assay type: cell-based; settings: Trypanosoma brucei, read-out: EC50 (µM) T. brucei
THP-1 cells [7] = experiment: cells; settings: Homo sapiens, THP-1, read-out: EC50 (µM) THP-1 cells
in vitro [8] = settings: human, liver S9 fraction
in vitro [9] = settings: human, liver microsomes
[10] = human, liver microsomes
[11] = strain HU3, mean ± standard deviation of 3 independent experiments
[12] = selectivity index (EC50 THP-1 / EC50 parasite (amastigote form)), L. donovani
[13] = strain s427 of T. b. brucei, mean ± standard deviation of 3 independent experiments

Structure (SMILES): C[C@@H]1[C@H](O)[C@@H](C)/C=C/C=C/C=C/C=C/C=C/C=C/C=C/[C@H](O[C@@H]2O[C@H](C)[C@@H](O)[C@H](N)[C@@H]2O)C[C@@H]2O[C@](O)(C[C@@H](O)C[C@@H](O)[C@H](O)CC[C@@H](O)C[C@@H](O)CC(=O)O[C@H]1C)C[C@H](O)[C@H]2C(=O)O [AmB, Amphotericin B]
- EC50 ([1]; L. infantum LEM3049, reference line, read-out: EC50 (µM) Intracellular amastigotes): 0.17 ± 0.02 µM
- EC50 ([1]; L. infantum LEM3323, resistant to SbIII, read-out: EC50 (µM) Intracellular amastigotes): 0.18 ± 0.02 µM
- EC50 ([1]; L. infantum LEM5159, resistant to miltefosine, read-out: EC50 (µM) Intracellular amastigotes): 0.16 ± 0.03 µM
- EC50 ([1]; L. infantum LLM2126, resistant to MIL and paromomycin, read-out: EC50 (µM) Intracellular amastigotes): 0.16 ± 0.01 µM
- EC50 [2, 11]: 0.13 ± 0.02 µM
- EC50 [3, 11]: 0.24 µM
- EC50 ([4]; L. infantum LEM3049, reference line, read-out: EC50 (µM) Promastigotes): 0.06 ± 0.02 µM
- EC50 ([4]; L. infantum LEM3323, resistant to SbIII, read-out: EC50 (µM) Promastigotes): 0.07 ± 0.03 µM
- EC50 ([4]; L. infantum LEM5159, resistant to miltefosine, read-out: EC50 (µM) Promastigotes): 0.05 ± 0.01 µM
- EC50 ([4]; L. infantum LLM2126, resistant to MIL and paromomycin, read-out: EC50 (µM) Promastigotes): 0.1 ± 0.02 µM
- EC50 (THP-1 cells [5]; read-out: EC50 (µM) THP-1 cells, human THP-1 cells, cytotoxicity): 27.9 µM
- SI (THP-1 cells [5]; [12]): 116.0

Structure (SMILES): N=C(N)c1ccc(/N=N/Nc2ccc(C(=N)N)cc2)cc1 [Dimin, Diminazene]
- EC50 (T. brucei B48): 1.33 ± 0.14 µM
- EC50 [6]: 0.101 µM

Structure (SMILES): CCCCCCCCCCCCCCCCOP(=O)([O-])OCC[N+](C)(C)C [MIL, Miltefosine]
- EC50 ([2]; Leishmania donovani): 6.51 ± 0.35 µM
- EC50 (THP-1 cells [7]): 26.2 ± 2.58 µM
- EC50 ([3]; Leishmania donovani): 0.91 ± 0.05 µM
- SI (THP-1 cells [5]; [12]): 28.8

Structure (SMILES): N=C(N)c1ccc(OCCCCCOc2ccc(C(=N)N)cc2)cc1 [Pent, Pentamidine]
- EC50 (T. brucei B48): 0.55 ± 0.03 µM
- EC50 [6, 13]: 0.0033 ± 0.0006 µM

Structure (SMILES): Cc1cc(O)ccc1C(=O)CCCCCCCCCCCCCCC[P+](c1ccccc1)(c1ccccc1)c1ccccc1.[Br-] [compound 2, (16-(4-hydroxy-2-methylphenyl)-16-oxohexadecyl)triphenylphosphonium bromide]
- EC50 ([2]; Leishmania donovani): 0.09 ± 0.01 µM
- EC50 (THP-1 cells [7]): 2.45 ± 0.41 µM
- EC50 ([3]; Leishmania donovani): 0.1 ± 0.01 µM
- RF (T. brucei B48): 1.01
- EC50 (T. brucei B48): 0.044 µM
- SI (THP-1 cells [5]): 24.5
- EC50 [6, 13]: 0.043 µM

Structure (SMILES): Cc1cc(O)ccc1C(=O)CCCCCCCCCCCCCCC[P+](c1ccccc1)(c1ccccc1)c1ccccn1.[Br-] [compound 3, (16-(4-hydroxy-2-methylphenyl)-16-oxohexadecyl)diphenyl(pyridin-2-yl)phosphonium bromide]
- EC50 ([2]; Leishmania donovani): 0.28 ± 0.05 µM
- EC50 (THP-1 cells [7]): 2.11 ± 0.12 µM
- EC50 ([3]; Leishmania donovani): 0.1 ± 0.02 µM
- RF (T. brucei B48): 0.90
- EC50 (T. brucei B48): 0.096 µM
- SI (THP-1 cells [5]): 21.1
- EC50 [6, 13]: 0.107 µM

Structure (SMILES): O=C(CCCCCCCCCCCCCCC[P+](c1cccc2ccccc12)(c1cccc2ccccc12)c1cccc2ccccc12)c1ccc(O)cc1O.[Br-] [compound 4, (16-(2,4-dihydroxyphenyl)-16-oxohexadecyl)tri(naphthalen-1-yl)phosphonium bromide]
- EC50 ([1]; Leishmania infantum, footnote d: sensitivity data obtained in L. infantum LEM3049, read-out: EC50 (µM) L. donovani intracellular amastigotes): 1.25 ± 0.22 µM
- EC50 (THP-1 cells [7]): 12.8 ± 2.3 µM
- EC50 ([4]; Leishmania infantum, footnote d: sensitivity data obtained in L. infantum LEM3049, read-out: EC50 (µM) L. donovani promastigotes): 3.54 ± 0.36 µM
- SI (THP-1 cells [5]; selectivity index (EC50 THP-1 / EC50 parasite (amastigote form)), parasite data from L. infantum LEM3049): 10.3

Structure (SMILES): O=C(O)Cc1ccccc1Nc1c(Cl)cccc1Cl [diclofenac]
- half-life (in vitro [8]): < 30 min
- half-life (in vitro [9]): < 30 min
- intrinsic clearance [10]: high
